Here are results for 1 compound from US20040191842A1, “Chemopreventive and therapeutic aspects of polyphenolic compositions and assays” (Medical College of Georgia Research Institute, Inc., priority 2002, published 2004).

The test system of data set [1] is MCF7 cells. Put plainly: BrdU incorporation assay, MCF7 cells. The format is cell-based, human. The following applies: increasing EGCG. The procedure: DNA synthesis analysis using BrdU incorporation method. The BrdU cell proliferation kit was purchased from Oncogene Research Products, Boston, Mass. Cells were culture in 96 well plates with 10^4 cells/well. After EGCG and GTPPs treatments, cells were labeled by BrdU, reacted with BrdU antibody and the color reaction was carried out according to the protocol provided by the manufacturer. The coloration was measure by a Thermo MAX microplate reader using wavelengths 450 nm-562 nm.
In general terms: Uptake of a labelled nucleoside into DNA is a usual measure of proliferation.

In a further data set the test system is transglutaminase. Kind of data set: Transglutaminase activity assay, exponentially growing keratinocytes. The format is cell-based, human. To be noted: 50 μM or 100 μM EGCG. The procedure:
Transglutaminase activity assay. Normal human epidermal keratinocytes in early passages (2-3) were allowed to grow in 6-well tissue culture plates prior to EGCG exposure. The cells were scraped in homogenization buffer (0.1 M Tris/acetate, pH 8.5, containing 0.2 mM EDTA, 20 μM AEBSF, 2 μg/mL aprotinin, 2 μM leupeptin and 1 μM pepstatin A), collected by centrifugation and subjected to one freeze-thaw cycle prior to lysis by sonication. Unlysed cells were pelleted by centrifugation and aliquots of the supernatant collected for the determination of transglutaminase activity and protein concentration. Protein quantities were determined using the BioRad Protein Assay with bovine serum albumin as standard. Transglutaminase activity was measured as the incorporation of [^3 H] putrescine into dimethylated casein, as described previously (Jung et al., J Invest Dermatol, 1998; 110:318-23).

Data set [2] has as its system MCF7 cells. Put plainly: Cell growth assay, MCF7 cells. The format is cell-based, human. The following applies: 50 μM EGCG, 96 hours. The procedure:
Cell growth assay. MCF7 cells were seeded (5×10^4) in 25 cm^2 tissue culture flask for 24 hours prior to EGCG or GTPPs incubation. Cells from each flask were trypsinized and counted at each time point on a hemacytometer.

The test system of another data set is p21. Kind of data set: Immunoblot of p21 protein in NHEK. It counts as cell-based, human. The following applies: EGCG 100 μM or higher, beyond 24 hours. The procedure:
To identify additional factors those suppress EGCG -induced apoptosis and facilitate cell differentiation in NHEK, exponentially growing NHEK (Cambrex, Baltimore, Md.) were exposed to 100 μM EGCG for 0, 2, 6 and 24 hours, prior to total RNA isolation using the Qiagen RNeasy mini kit (Valencia, Calif.), which was followed by RT-PCR labeling and hybridization with the Human Apoptosis Macroarray membrane (Sigma-Genosys, The Woodlands, Tex.). Total cell lysates also were collected following a variety of EGCG treatments. The protein levels for caspase 14 and p21 were determined by immuno-blotting using antibodies specific for caspase 14 and p21 (Santa Cruz Biotechnology, Santa Cruz, Calif.).
In general terms: Immunoblotting shows a protein as a band on a membrane.

For data set [3], the system named is salivary acenar cells (AC) and duct cells (DC), HSG and OSC tumor cells. Kind of data set: Protection of salivary gland cells from CDDP and UVC (SDH, BrdU). To be noted: pretreatment of EGCG. The text has this:
Human immortalized salivary acenar cells (AC) and duct cells (DC), along with human salivary gland tumor cells (HSG, a radiation-resistant cell line) and oral squamous carcinoma cells (OSC) were either treated by CDDP or irradiated by UVC with or without the presence of EGCG, followed by determination of the mitochondrial succinate dehydrogenase (SDH) activity, a measurement of mitochondrial damage and BrdU incorporation determination.

A further data set has as its system MCF7 (C) cells. Put plainly: Morphological analysis, MCF7(C) cells. The following applies: EGCG, 48 hours. It counts as cell-based, human. The text has this:
(§1) Cell lines and cell culture. The normal human keratinocytes (NHEK CC-2507) were purchased from Cambrex (East Rutherford, N.J.) and maintained in KGM-2 medium (Cambrex). The OSC2 cell line was previously described (Osaki et al., Eur J Cancer B Oral Oncol 1994; 30 B:296-301). The breast carcinoma MCF7 cell line was purchased from American Type Culture Collection. The MCF7(C) caspase+cell line “7-3-28 ” was established and tested as previously described (Janicke et al., J Biol Chem 1998; 273:9357-60, Blanc et al., Cancer Res 2000; 60:4386-90). These tumor cells were maintained in 45% Dulbecco's Modified Eagle's Medium (DMEM), 45% Ham's F12 medium and 10% fetal calf serum, 100 I.U/ml penicillin, 100 μg/ml streptomycin and 5 μg/ml hydrocortisone. All cell cultures were maintained in a 37° C. incubator with 5% CO2. Light microscopic photographs were taken with a SPOT RT digital camera system (Diagnostic Instruments) linked to a Nikon Phase Contrast-2 microscope at an original magnification of 200×.

The next data set concerns SOD. Kind of data set: SOD activity assay in cell lysates. It counts as cell-based, human. To be noted: 50 μM EGCG, 30 minutes; NHEK, OSC-2, OSC-4. The procedure: Assays for SOD and catalase activities. Cells (1×10^6 cells/well) were incubated with or without EGCG (50 μM) in FilterCap 50 ml flasks (Nagel Nunc International, Rochester, N.Y.) for 30 minutes at 37° C. After the incubation, cells were harvested and disrupted in 100 μl of 10 mM Tris-HCl (pH 7.4) containing 0.1%(v/v) Triton X-100, 10 μg/ml leupeptin, 10 μg/ml pepstatin A and 100 mM phenylmethylsulfonyl fluoride by three cycles of freezing/thawing. After centrifugation at 17,000×g for 20 minutes at 4° C., the supernatants were used for SOD and catalase assays using the SOD Assay Kit-WST (Dojindo Molecular Technologies, Inc., Gaithersburg, Md.) and the AMPLEX Red Catalase Assay Kit (Molecular Probes), respectively. The activities of SOD and catalase were calibrated using a standard curve prepared with purified human SOD and catalase. The activities of SOD and catalase were expressed as units (U)/10^6 cells.
Assays for SOD and catalase activities. Cells (10^5 cells/well) were incubated with or without EGCG (50 μM) in 24-well culture plates for desirable time periods at 37° C. After the incubation, cells were harvested and disrupted in 100 μl of 10 mM Tris-HCl (pH 7.4) containing 0.1% (v/v) Triton ×-100, 10 μg/ml leupeptin, 10 μg/ml pepstatin A and 100 mM PMSF by three cycles of freezing/thawing. […] The activities of SOD and catalase were expressed as units (U)/10^6 cells.

The test system of data set [4] is MCF7 cells. Put plainly: Morphological analysis, MCF7 cells. It counts as cell-based, human. To be noted: EGCG, 48 hours, vs 24 hour control.
Text: as §1

The test system of another data set is OSC2 cells. Put plainly: Cell growth assay, OSC2 cells. The format is cell-based, human. To be noted: 50 μM EGCG, day four. The procedure: Cell growth assay. Cells (2×10^5) were seeded in each T25 culture flask with 5 ml DMEM/F12 medium for 48 hours. The treatments were started with 50 μM EGCG for 24 hours, 48 hours and 96 hours. At each time point, the cell numbers were counted using a hemacytometer with the presence of Trypan blue.

`O=C(O[C@@H]1Cc2c(O)cc(O)cc2O[C@@H]1c1cc(O)c(O)c(O)c1)c1cc(O)c(O)c(O)c1` [EGCG, (−)-epigallocatechin-3-gallate]: the BrdU incorporation result in the data set on MCF7 cells [1] was “able in incorporate BrdU efficiently”. The “transglutaminase activity vs control” value in the data set with transglutaminase is listed as “significantly higher activity”. Moreover, in the data set with MCF7 cells [2], the “cell number compared to untreated cultures” value is “only an insignificant decrease in cell number”. The “p21 protein level, of controls” value in the data set on p21 was “below 50%”. Besides, the “protection from CDDP and UVC cytotoxicity” value in data set [3] is “significantly protected the normal salivary gland cells from CDDP and UVC, but not the tumor cells”. The morphology entry in the data set on MCF7 (C) cells was “significantly reduced the cell number and produced cell blebbing”. Further, the SOD activity entry in the data set with SOD is on record as “did not alter SOD activity”. Moreover, in the data set on MCF7 cells [4], the cell density entry is “increased cell density was observed”. The “cell number compared to controls” value in the data set with OSC2 cells came to 50%.
